Measured values from patent US20150105252A1, “SUBSTITUTED PYRAZOLES AS HERBICIDES” (E I DU PONT DE NEMOURS AND COMPANY, priority 2013, published 2015).

What was measured:
Assay in all cases: Test C postemergence
[1] = system: blackgrass; type: in vivo, Alopecurus myosuroides; details: for Plant response rating (scale of 0 to 100 where 0 is no effect and 100 is complete control), Blackgrass: Postemergence, 31 g ai/ha, visually evaluated after 13 to 15 days; for Blackgrass plant response rating / Plant response rating, Blackgrass: postemergence; for Blackgrass plant response rating: 62 g ai/ha, scale 0 to 100
Summary of the method: (§1)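 Herbicidal effect is expressed as percent visual control (0–100) judged against untreated plants 13 to 15 days after treatment in the greenhouse. Preemergence pots contained seeds in a soil–sand blend; postemergence plants, 2–18 cm tall, grew in peat-based planting medium.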

[2] = system: ryegrass, Italian; type: in vivo, Lolium multiflorum; details: postemergence
Summary of the method: as §1

[3] = system: wheat; type: in vivo, Triticum aestivum; details: postemergence; for Plant response rating, Wheat: 250 g ai/ha, scale 0 to 100 (0 no effect, 100 complete control)
Summary of the method: as §1

[4] = system: foxtail, giant; type: in vivo, Setaria faberii; details: for Plant response rating (scale of 0 to 100 where 0 is no effect and 100 is complete control), Foxtail, Giant: Postemergence, 31 g ai/ha, visually evaluated after 13 to 15 days; for Foxtail, Giant plant response rating / Plant response rating, Foxtail, Giant: postemergence; for Foxtail, Giant plant response rating: 62 g ai/ha, scale 0 to 100
Summary of the method: as §1

[5] = system: johnsongrass; type: in vivo, Sorghum halepense; details: for Plant response rating (scale of 0 to 100 where 0 is no effect and 100 is complete control), Johnsongrass: Postemergence, 31 g ai/ha, visually evaluated after 13 to 15 days; for Johnsongrass plant response rating / Plant response rating, Johnsongrass: postemergence; for Johnsongrass plant response rating: 62 g ai/ha, scale 0 to 100
Summary of the method: as §1

[6] = system: lambsquarters; type: in vivo, Chenopodium album; details: for Plant response rating (scale of 0 to 100 where 0 is no effect and 100 is complete control), Lambsquarters: Postemergence, 31 g ai/ha, visually evaluated after 13 to 15 days; for Lambsquarters plant response rating / Plant response rating, Lambsquarters: postemergence; for Lambsquarters plant response rating: 62 g ai/ha, scale 0 to 100
Summary of the method: as §1

[7] = system: morningglory; type: in vivo, Ipomoea coccinea; details: for Plant response rating (scale of 0 to 100 where 0 is no effect and 100 is complete control), Morningglory: Postemergence, 31 g ai/ha, visually evaluated after 13 to 15 days; for Morningglory plant response rating / Plant response rating, Morningglory: postemergence; for Morningglory plant response rating: 62 g ai/ha, scale 0 to 100
Summary of the method: as §1

[8] = system: nutsedge, yellow; type: in vivo, Cyperus esculentus; details: for Plant response rating (scale of 0 to 100 where 0 is no effect and 100 is complete control), Nutsedge, Yellow: Postemergence, 31 g ai/ha, visually evaluated after 13 to 15 days; for Nutsedge, Yellow plant response rating / Plant response rating, Nutsedge, Yellow: postemergence; for Nutsedge, Yellow plant response rating: 62 g ai/ha, scale 0 to 100
Summary of the method: as §1

[9] = system: pigweed; type: in vivo, Amaranthus retroflexus; details: postemergence; for Pigweed plant response rating: 62 g ai/ha, scale 0 to 100
Summary of the method: as §1

[10] = system: ragweed; type: in vivo, Ambrosia elation; details: postemergence
Summary of the method: as §1

[11] = system: soybean; type: in vivo, Glycine max; details: postemergence; for Plant response rating, Soybean: 250 g ai/ha, scale 0 to 100 (0 no effect, 100 complete control); for Soybean plant response rating: 125 g ai/ha, scale 0 to 100, 0 no effect, 100 complete control
Summary of the method: as §1

[12] = system: barnyardgrass; type: in vivo, Echinochloa crus-galli; details: for Plant response rating (scale of 0 to 100 where 0 is no effect and 100 is complete control), Barnyardgrass: Postemergence, 31 g ai/ha, visually evaluated after 13 to 15 days; for Barnyardgrass plant response rating / Plant response rating, Barnyardgrass: postemergence; for Barnyardgrass plant response rating: 62 g ai/ha, scale 0 to 100
Summary of the method: as §1

[13] = system: oilseed rape; type: in vivo, Brassica napus; details: postemergence; for Oilseed Rape plant response rating: 62 g ai/ha, scale 0 to 100
Summary of the method: as §1

[14] = system: waterhemp; type: in vivo, Amaranthus rudis; details: postemergence; for Plant response rating, Waterhemp: 250 g ai/ha, scale 0 to 100 (0 no effect, 100 complete control)
Summary of the method: as §1

[15] = system: oat, wild; type: in vivo, Avena fatua; details: for Plant response rating (scale of 0 to 100 where 0 is no effect and 100 is complete control), Oat, Wild: Postemergence, 31 g ai/ha, visually evaluated after 13 to 15 days; for Oat, Wild plant response rating / Plant response rating, Oat, Wild: postemergence; for Oat, Wild plant response rating: 62 g ai/ha, scale 0 to 100
Summary of the method: as §1

[16] = system: kochia; type: in vivo, Kochia scoparia; details: for Plant response rating (scale of 0 to 100 where 0 is no effect and 100 is complete control), Kochia: Postemergence, 31 g ai/ha, visually evaluated after 13 to 15 days; for Kochia plant response rating / Plant response rating, Kochia: postemergence; for Kochia plant response rating: 62 g ai/ha, scale 0 to 100
Summary of the method: as §1

[17] = system: chickweed; type: in vivo, Stellaria media; details: for Plant response rating (scale of 0 to 100 where 0 is no effect and 100 is complete control), Chickweed: Postemergence, 31 g ai/ha, visually evaluated after 13 to 15 days; for Chickweed plant response rating / Plant response rating, Chickweed: postemergence; for Chickweed plant response rating: 62 g ai/ha, scale 0 to 100
Summary of the method: as §1

[18] = 250 g ai/ha, scale 0 to 100 (0 no effect, 100 complete control)
[19] = 125 g ai/ha, scale 0 to 100, 0 no effect, 100 complete control

CCc1cc(C(=O)NC2CC2)nn1Cc1ccnc(OCC(F)(F)F)c1 [Compound 200]
Plant response rating (scale of 0 to 100 where 0 is no effect and 100 is complete control), Blackgrass [1]: 5 | Blackgrass plant response rating [1]: 10 | Plant response rating, Blackgrass [1, 18]: 15 | Plant response rating, Blackgrass [1, 19]: 15 | Plant response rating, Ryegrass, Italian [2, 18]: 15 | Plant response rating, Ryegrass, Italian [2, 19]: 15 | Plant response rating, Wheat [3]: 10 | Plant response rating (scale of 0 to 100 where 0 is no effect and 100 is complete control), Foxtail, Giant [4]: 5 | Foxtail, Giant plant response rating [4]: 10 | Plant response rating, Foxtail, Giant [4, 18]: 15 | Plant response rating, Foxtail, Giant [4, 19]: 15 | Plant response rating (scale of 0 to 100 where 0 is no effect and 100 is complete control), Johnsongrass [5]: 10 | Johnsongrass plant response rating [5]: 10 | Plant response rating, Johnsongrass [5, 18]: 20 | Plant response rating, Johnsongrass [5, 19]: 10 | Plant response rating (scale of 0 to 100 where 0 is no effect and 100 is complete control), Lambsquarters [6]: 55 | Lambsquarters plant response rating [6]: 65 | Plant response rating, Lambsquarters [6, 18]: 95 | Plant response rating, Lambsquarters [6, 19]: 65 | Plant response rating (scale of 0 to 100 where 0 is no effect and 100 is complete control), Morningglory [7]: 65 | Morningglory plant response rating [7]: 65 | Plant response rating, Morningglory [7, 18]: 75 | Plant response rating, Morningglory [7, 19]: 75 | Plant response rating (scale of 0 to 100 where 0 is no effect and 100 is complete control), Nutsedge, Yellow [8]: 0 | Nutsedge, Yellow plant response rating [8]: 0 | Plant response rating, Nutsedge, Yellow [8, 18]: 10 | Plant response rating, Nutsedge, Yellow [8, 19]: 5 | Pigweed plant response rating [9]: 60 | Plant response rating, Pigweed [9, 18]: 80 | Plant response rating, Pigweed [9, 19]: 75 | Plant response rating, Ragweed [10, 18]: 45 | Plant response rating, Ragweed [10, 19]: 45 | Plant response rating, Soybean [11]: 90 | Soybean plant response rating [11]: 90 | Plant response rating (scale of 0 to 100 where 0 is no effect and 100 is complete control), Barnyardgrass [12]: 0 | Barnyardgrass plant response rating [12]: 5 | Plant response rating, Barnyardgrass [12, 18]: 10 | Plant response rating, Barnyardgrass [12, 19]: 5 | Oilseed Rape plant response rating [13]: 30 | Plant response rating, Oilseed Rape [13, 18]: 60 | Plant response rating, Oilseed Rape [13, 19]: 60 | Plant response rating, Waterhemp [14]: 85 | Plant response rating (scale of 0 to 100 where 0 is no effect and 100 is complete control), Oat, Wild [15]: 5 | Oat, Wild plant response rating [15]: 10 | Plant response rating, Oat, Wild [15, 18]: 20 | Plant response rating, Oat, Wild [15, 19]: 10 | Plant response rating (scale of 0 to 100 where 0 is no effect and 100 is complete control), Kochia [16]: 90 | Kochia plant response rating [16]: 90 | Plant response rating, Kochia [16, 18]: 90 | Plant response rating, Kochia [16, 19]: 90 | Plant response rating (scale of 0 to 100 where 0 is no effect and 100 is complete control), Chickweed [17]: 75 | Chickweed plant response rating [17]: 75 | Plant response rating, Chickweed [17, 18]: 90 | Plant response rating, Chickweed [17, 19]: 90

CCc1cc(C(=O)NCC(F)(F)F)nn1Cc1cc(OC(F)F)nn1C [Compound 206]
Plant response rating (scale of 0 to 100 where 0 is no effect and 100 is complete control), Blackgrass [1]: 0 | Blackgrass plant response rating [1]: 0 | Plant response rating, Blackgrass [1, 18]: 5 | Plant response rating, Blackgrass [1, 19]: 5 | Plant response rating, Ryegrass, Italian [2, 18]: 0 | Plant response rating, Ryegrass, Italian [2, 19]: 0 | Plant response rating, Wheat [3]: 0 | Wheat plant response rating ([3]; scale 0 to 100): 0 | Plant response rating (scale of 0 to 100 where 0 is no effect and 100 is complete control), Foxtail, Giant [4]: 15 | Foxtail, Giant plant response rating [4]: 5 | Plant response rating, Foxtail, Giant [4, 18]: 5 | Plant response rating, Foxtail, Giant [4, 19]: 5 | Plant response rating (scale of 0 to 100 where 0 is no effect and 100 is complete control), Johnsongrass [5]: 0 | Johnsongrass plant response rating [5]: 0 | Plant response rating, Johnsongrass [5, 18]: 5 | Plant response rating, Johnsongrass [5, 19]: 5 | Plant response rating (scale of 0 to 100 where 0 is no effect and 100 is complete control), Lambsquarters [6]: 10 | Lambsquarters plant response rating [6]: 10 | Plant response rating, Lambsquarters [6, 18]: 30 | Plant response rating, Lambsquarters [6, 19]: 15 | Plant response rating (scale of 0 to 100 where 0 is no effect and 100 is complete control), Morningglory [7]: 40 | Morningglory plant response rating [7]: 40 | Plant response rating, Morningglory [7, 18]: 65 | Plant response rating, Morningglory [7, 19]: 60 | Plant response rating (scale of 0 to 100 where 0 is no effect and 100 is complete control), Nutsedge, Yellow [8]: 0 | Nutsedge, Yellow plant response rating [8]: 0 | Plant response rating, Nutsedge, Yellow [8, 18]: 0 | Plant response rating, Nutsedge, Yellow [8, 19]: 0 | Pigweed plant response rating [9]: 25 | Plant response rating, Pigweed [9, 18]: 40 | Plant response rating, Pigweed [9, 19]: 40 | Plant response rating, Ragweed [10, 18]: 20 | Plant response rating, Ragweed [10, 19]: 35 | Plant response rating, Soybean [11]: 35 | Soybean plant response rating [11]: 45 | Plant response rating (scale of 0 to 100 where 0 is no effect and 100 is complete control), Barnyardgrass [12]: 5 | Barnyardgrass plant response rating [12]: 5 | Plant response rating, Barnyardgrass [12, 18]: 5 | Plant response rating, Barnyardgrass [12, 19]: 5 | Oilseed Rape plant response rating [13]: 5 | Plant response rating, Oilseed Rape [13, 18]: 50 | Plant response rating, Oilseed Rape [13, 19]: 5 | Plant response rating, Waterhemp [14]: 45 | Waterhemp plant response rating ([14]; scale 0 to 100): 35 | Plant response rating (scale of 0 to 100 where 0 is no effect and 100 is complete control), Oat, Wild [15]: 0 | Oat, Wild plant response rating [15]: 0 | Plant response rating, Oat, Wild [15, 18]: 5 | Plant response rating, Oat, Wild [15, 19]: 5 | Plant response rating (scale of 0 to 100 where 0 is no effect and 100 is complete control), Kochia [16]: 30 | Kochia plant response rating [16]: 35 | Plant response rating, Kochia [16, 18]: 75 | Plant response rating, Kochia [16, 19]: 45 | Plant response rating (scale of 0 to 100 where 0 is no effect and 100 is complete control), Chickweed [17]: 5 | Chickweed plant response rating [17]: 5 | Plant response rating, Chickweed [17, 18]: 75 | Plant response rating, Chickweed [17, 19]: 5
